Assays:
[1] = tested on: human DSM isolated strips; test: Isometric tension recordings: nerve-evoked (EFS-induced) contractions of DSM isolated strips; format: cell-based; conditions: 17β-estradiol 100 nM; in particular at lower stimulation frequencies (0.5-20.0 Hz); n=7, N=3; P<0.05
Description: (§1) Isometric DSM tension recordings: Isometric DSM tension recordings of human DSM isolated strips (˜7-8 mm long and ˜4-5 mm wide) were conducted as previously described (Hristov K L, Chen M, Kellett W F, Rovner E S, and Petkov G V. Large-conductance voltage- and Ca2+-activated K+ channels regulate human detrusor smooth muscle function. Am J Physiol Cell Physiol 301: C903-912, 2011; Hristov K L, Parajuli S P, Soder R P, Cheng Q, Rovner E S, and Petkov G V. Suppression of human detrusor smooth muscle excitability and contractility via pharmacological activation of large conductance Ca2+-activated K+ channels. Am J Physiol Cell Physiol 302: C1632-1641, 2012).
(§2) Solutions and drugs: Ca^2+-free dissection solution contained (in mM): 80 monosodium glutamate, 55 NaCl, 6 KCl, 10 glucose, 10 HEPES,2 MgCl2, and the pH was adjusted to 7.3 with NaOH. […] Extracellular and patch-pipette solutions for single BK channel recordings contained (in mM): 140 KCl, 1.08 MgCl2, 5 EGTA, 10 HEPES, and 3.16 CaCl2, adjusted to pH 7.2 with NaOH (Ca^2+ free concentration was calculated ˜300 nM with WEBMAXC Standard, http://www.stanford.edu/˜cpatton/webmaxcS.htm, Chris Patton). […]

human DSM cells = test: Resting membrane potential (RMP) of DSM cells, current-clamp; format: cell-based
Description: (§3) Patch-clamp electrophysiological experiments: Patch-clamp experiments were performed as previously described. (Hristov K L, Chen M, Kellett W F, Rovner E S, and Petkov G V. Large-conductance voltage- and Ca2+-activated K+ channels regulate human detrusor smooth muscle function. Am J Physiol Cell Physiol 301: C903-912, 2011; Hristov K L, Parajuli S P, Soder R P, Cheng Q, Rovner E S, and Petkov G V. Suppression of human detrusor smooth muscle excitability and contractility via pharmacological activation of large conductance Ca2+-activated K+ channels. Am J Physiol Cell Physiol 302: C1632-1641, 2012; Malysz J, Rovner E S, and Petkov G V. Single-channel biophysical and pharmacological characterizations of native human large-conductance calcium-activated potassium channels in freshly isolated detrusor smooth muscle cells. Pflugers Arch 465: 965-975, 2013; Parajuli S P, Hristov K L, Cheng Q P, Malysz J, Rovner E S, and Petkov G V. Functional link between muscarinic receptors and large-conductance Ca2+-activated K+ channels in freshly isolated human detrusor smooth muscle cells. Pflugers Arch 467: 665-675, 2015.)
The current disclosure applied the amphotericin B-perforated whole cell patch-clamp technique to record transient BK currents (TBKCs), depolarization-induced steady-state whole cell BK currents, and the resting membrane potential (RMP) of human freshly-isolated DSM cells. TBKCs in DSM cells were recorded at the holding potential of −20 mV. Depolarization-induced steady-state whole cell BK currents were elicited by holding the DSM cells at −70 mV and then brief, 200 ms depolarization steps were applied from −40 mV to +80 mV in increments of 20 mV. Single BK channel activity was recorded from inside-out excised membrane patches using symmetrical K^+ (140 mM) solutions, at a holding potential of −60 mV (Vh=−60 mV). The electrochemical driving force for K^+ in these experimental conditions was +60 mV (VDV=60 mV). Paxilline (1 μM), a selective BK channel inhibitor was used to dissect their functional role in mediating 17β-estradiol induced effects on DSM function. All patch-clamp experiments were conducted at room temperature (22-23° C.).
as §2

BK channels [2] = biological target: T1, BK channels (Homo sapiens, UniProt Q12791+Q16558); test: Depolarization-induced steady-state whole cell outward BK currents, amphotericin B-perforated patch-clamp, freshly-isolated DSM cells; format: cell-based
T1 construct: Human single DSM cells were enzymatically isolated as previously described; endogenous in cells; host or cells: freshly-isolated human detrusor smooth muscle (DSM) cells from open bladder surgery specimens
Text: as §3, with “DSM single cell isolation: Human single DSM cells” for “Patch-clamp electrophysiological experiments: Patch-clamp experiments”, “enzymatically isolated” for “performed”, “2012;” for “2012; Malysz J, Rovner E S, and Petkov G V. Single-channel biophysical and pharmacological characterizations of native human large-conductance calcium-activated potassium channels in freshly isolated detrusor smooth muscle cells. Pflugers Arch 465: 965-975, 2013;”
(§4) Patch-clamp electrophysiological experiments: Patch-clamp experiments were performed as previously described. […]
(§5) The current disclosure applied the amphotericin B-perforated whole cell patch-clamp technique to record transient BK currents (TBKCs), depolarization-induced steady-state whole cell BK currents, and the resting membrane potential (RMP) of human freshly-isolated DSM cells. TBKCs in DSM cells were recorded at the holding potential of −20 mV. […] Single BK channel activity was recorded from inside-out excised membrane patches using symmetrical K^+ (140 mM) solutions, at a holding potential of −60 mV (Vh=−60 mV). […]

rat DSM isolated strips = conditions: 17β-estradiol 30 μM; cited from earlier work
[3] = tested on: human DSM isolated strips; test: Isometric tension recordings: spontaneous phasic contractions of DSM isolated strips; format: cell-based
Description: Human DSM specimen collection: The study forming the basis for the current disclosure was conducted according to protocol Pro00045232, reviewed and approved by the Medical University of South Carolina Institutional Review Board. […] The DSM tissue samples were obtained during open bladder surgeries performed for a variety of indications such as bladder cancer, including radical cystectomy for urothelial carcinoma, and adenocarcinoma. In such cases, the collected DSM tissue was remote from the site of tumor. DSM strips were dissected from the bladder specimens, and after removing the urothelial and lamina propria layers, the strips were used for single DSM cell isolation and isometric DSM tension recordings.
as §1
Solutions and drugs: Ca^2+-free dissection solution contained (in mM): 80 monosodium glutamate, 55 NaCl, 6 KCl, 10 glucose, 10 HEPES,2 MgCl2, and the pH was adjusted to 7.3 with NaOH. For the functional studies on human DSM contractility, the physiological saline solution had the following composition (in mM): 119 NaCl, 4.7 KCl, 24 NaHCO3, 1.2 KH2PO4, 2.5 CaCl2, 1.2 MgSO4, and 11 D-glucose, aerated with 95% O2-5% CO2 (pH 7.4). Extracellular (bath) solution used for the perforated whole cell patch-clamp experiments contained (in mM): 134 NaCl, 6 KCl, 1 MgCl2, 2 CaCl2, 10 glucose, 10 HEPES, and pH was adjusted to 7.4 with NaOH. The patch-pipette solution for the perforated patch-clamp experiments contained (in mM): 110 potassium aspartate, 30 KCl, 10 NaCl, 1 MgCl2, 10 HEPES, 0.05 EGTA, and pH was adjusted to 7.2 with NaOH. Amphotericin-B stock solution was prepared daily in dimethyl sulfoxide (DMSO) and was added to the pipette solution (200 μg/ml) before the experiment and was replaced every 1-2 h. Extracellular and patch-pipette solutions for single BK channel recordings contained (in mM): 140 KCl, 1.08 MgCl2, 5 EGTA, 10 HEPES, and 3.16 CaCl2, adjusted to pH 7.2 with NaOH (Ca^2+ free concentration was calculated ˜300 nM with WEBMAXC Standard, http://www.stanford.edu/˜cpatton/webmaxcS.htm, Chris Patton). […]
Data analysis and statistics: Clampfit 10.3 (Molecular Device, Union City, Calif.) and Minianalysis software (Synaptosoft, Inc., NJ) were used to analyze the data. Mean values of the last 50 ms pulse of 200 ms depolarization step of at least 5 average files in the absence (control) and in the presence of 17β-estradiol were analyzed to evaluate the effects of 17β-estradiol on steady-state whole cell BK currents. […] Five minutes of at least an 8-10 min stable patch-clamp recording prior to application of 17β-estradiol were analyzed for control data, and the last 5 min of continuous recordings of 10-15 min after application of 17β-estradiol were analyzed to evaluate the effects of 17β-estradiol on RMP or TBKCs. […]

BK channels [4] = biological target: T1, BK channels; test: Transient BK currents (TBKCs), perforated whole cell patch-clamp, freshly-isolated DSM cells; format: cell-based; conditions: 17β-estradiol 100 nM, holding potential −20 mV
Text: as §3, with “DSM single cell isolation: Human single DSM cells” for “Patch-clamp electrophysiological experiments: Patch-clamp experiments”, “enzymatically isolated” for “performed”, “2012;” for “2012; Malysz J, Rovner E S, and Petkov G V. Single-channel biophysical and pharmacological characterizations of native human large-conductance calcium-activated potassium channels in freshly isolated detrusor smooth muscle cells. Pflugers Arch 465: 965-975, 2013;”, “2015.) […]” for “2015.)”
as §5

BK channels [5] = biological target: T1, BK channels; test: Single BK channel recordings, inside-out excised membrane patches of DSM cells; format: biochemical; conditions: 17β-estradiol 100 nM, n=9, N=7
Description: as §4, §5, §2

pig DSM isolated strips = conditions: 17β-estradiol 30 μM; cited from earlier work
[6] = 17β-estradiol 100 nM-1 μM, strips pre-incubated with paxilline (1 μM), n=5, N=5, P>0.05
[7] = 17β-estradiol 1 μM, n=8, N=5, P<0.05

T1 sequence (Q12791 whole entry): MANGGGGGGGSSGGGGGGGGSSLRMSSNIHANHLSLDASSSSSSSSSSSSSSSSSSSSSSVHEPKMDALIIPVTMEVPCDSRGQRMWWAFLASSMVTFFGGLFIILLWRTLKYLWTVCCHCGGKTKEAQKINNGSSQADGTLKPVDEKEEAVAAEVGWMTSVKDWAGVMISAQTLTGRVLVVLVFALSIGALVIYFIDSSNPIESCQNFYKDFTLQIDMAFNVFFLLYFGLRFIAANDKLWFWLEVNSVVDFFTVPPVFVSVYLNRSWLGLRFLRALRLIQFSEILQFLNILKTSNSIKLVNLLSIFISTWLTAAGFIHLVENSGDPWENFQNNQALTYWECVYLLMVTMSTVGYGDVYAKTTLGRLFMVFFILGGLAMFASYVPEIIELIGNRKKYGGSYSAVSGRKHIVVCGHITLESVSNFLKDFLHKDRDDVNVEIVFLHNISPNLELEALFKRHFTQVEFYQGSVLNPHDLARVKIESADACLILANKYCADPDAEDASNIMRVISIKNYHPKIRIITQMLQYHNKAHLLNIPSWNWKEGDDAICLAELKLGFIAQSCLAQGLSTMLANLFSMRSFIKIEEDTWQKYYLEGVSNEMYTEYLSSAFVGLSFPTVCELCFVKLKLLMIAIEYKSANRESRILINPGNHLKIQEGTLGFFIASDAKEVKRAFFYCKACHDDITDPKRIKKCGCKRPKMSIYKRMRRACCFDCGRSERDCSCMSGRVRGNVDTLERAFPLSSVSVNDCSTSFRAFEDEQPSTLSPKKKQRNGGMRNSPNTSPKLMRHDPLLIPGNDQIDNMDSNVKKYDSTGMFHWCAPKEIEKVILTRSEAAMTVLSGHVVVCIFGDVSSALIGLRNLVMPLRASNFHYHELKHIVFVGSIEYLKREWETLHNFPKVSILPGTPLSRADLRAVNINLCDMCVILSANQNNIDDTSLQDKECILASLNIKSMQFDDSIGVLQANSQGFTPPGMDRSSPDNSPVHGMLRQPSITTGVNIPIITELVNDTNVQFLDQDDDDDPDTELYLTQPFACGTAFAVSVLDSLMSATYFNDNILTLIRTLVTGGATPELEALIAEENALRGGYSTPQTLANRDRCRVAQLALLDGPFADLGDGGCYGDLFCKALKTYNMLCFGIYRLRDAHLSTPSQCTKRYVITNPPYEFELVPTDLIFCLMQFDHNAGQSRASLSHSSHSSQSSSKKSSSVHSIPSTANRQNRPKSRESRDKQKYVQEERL
T1 sequence (Q16558 whole entry): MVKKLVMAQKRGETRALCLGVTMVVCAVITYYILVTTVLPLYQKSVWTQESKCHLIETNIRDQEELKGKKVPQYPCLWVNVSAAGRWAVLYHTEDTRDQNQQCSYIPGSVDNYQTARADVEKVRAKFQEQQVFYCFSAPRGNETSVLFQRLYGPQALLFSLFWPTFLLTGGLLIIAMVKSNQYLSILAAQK

Row | SMILES | effect on EFS-induced contractions [1] | DSM cell RMP (human DSM cells; 17β-estradiol 100 nM, control −25.7±3.2 mV, n=11, N=9, P<0.05) [mV] | hyperpolarization of the DSM cell RMP (human DSM cells; 17β-estradiol 100 nM, n=11, N=9, P<0.05) [mV] | DSM cell RMP (human DSM cells; 17β-estradiol in the presence of paxilline (1 μM), n=8, N=5, P>0.05) [mV] | effect on whole cell K+ current density (BK channels [2]; 17β-estradiol 100 nM, n=12, N=8, P<0.05) | whole cell outward K+ currents (BK channels [2]; at +80 mV, 17β-estradiol 100 nM, control 33.9±6.5 pA/pF, n=12, N=8, P<0.05) [pA/pF] | BK current amplitude (BK channels [2]; at +80 mV, both paxilline (1 μM) and 17β-estradiol (100 nM), vs 6.1±1.7 paxilline alone, P>0.05) [pA/pF] | effect on pharmacologically-induced and nerve-evoked contractions (rat DSM isolated strips) | effect on muscle force integral [3, 6] | effect on spontaneous phasic contraction amplitude [3, 6] | decrease of muscle force integral [3, 7] [%] | decrease of spontaneous phasic contraction amplitude [3, 7] [%] | effect on phasic contraction frequency ([3]; 17β-estradiol 1 μM, n=8, N=5, P>0.05) | effect on average TBKC amplitude (BK channels [4]) | increase of the frequency of TBKCs (BK channels [4]; control taken as 100%, n=8, N=5, P<0.05) [%] | single BK channel open probability (NPo) (BK channels [5]; Vh=−60 mV, control 0.086±0.030, P<0.05) | single BK channel current amplitude (BK channels [5]; control 11.7±0.7 pA, P>0.05) [pA] | effect on KCl- and muscarinic receptor-induced contractions (pig DSM isolated strips) | DSM cell RMP (human DSM cells; paxilline only (1 μM), n=8, N=5) [mV]
1 | C[C@]12CC[C@@H]3c4ccc(O)cc4CC[C@H]3[C@@H]1CC[C@@H]2O [17β-estradiol] | significantly inhibited | −28.9±3.3 | ~3 | −21.9±4.4 | significantly increased | 44.5±7.8 | 6.8±1.8 | decrease | did not affect | did not affect | 44.4±13.2 | 53.3±8.9 | without significantly changing | without significantly altering | 74.6±37.8 | 0.137±0.030 | 11.9±0.5 | inhibitory effects | –
2 | CC(C)(O)[C@H]1O[C@H]2CC[C@@]3(C)[C@@](O)(CC[C@H]4Cc5c([nH]c6ccccc56)[C@@]43C)C2=CC1=O [paxilline] | – | – | – | – | – | – | – | – | – | – | – | – | – | – | – | – | – | – | −22.1±4.7

From patent US20170348322A1, “BK Channels as Non-Genomic Estrogen Targets for Overactive Bladder” (priority 2016, published 2017)
